Calls of active or inactive are those of the source. The calls are words filed in the database; no cut-off is given here.
Legend:
[1] = target: Neuronal acetylcholine receptor; alpha9/alpha10 (Homo sapiens) (UniProt Q9UGM1+Q9GZZ6); assay: Antagonist activity at alpha9/alpha10 nAChR expressed in Xenopus oocyte assessed as inhibition of ACh-gated current response at 100 nM by voltage clamp electrophysiology assay; type: functional; design: scale not given: the % may be the effect or the level left
[2] = target: Neuronal acetylcholine receptor; alpha3/beta4 (Homo sapiens, UniProt P30926+P32297); assay: Inhibition of alpha3beta4 nAChR; type: protein-complex assay
[3] = Inhibition of muscle nAChR; type: tissue-based, Muscle tissue
[4] = species: Rattus norvegicus; assay: Analgesic activity in rat pain model by tail flick test; type: functional, organism-based
[5] = test system: Rattus norvegicus; assay: Analgesic activity in rat chronic constriction nerve injury model of neuropathic pain assessed as reversal of mechanical hyperalgesia measured after repeated dosing for 7 days; type: functional, organism-based
[6] = target: Neuronal acetylcholine receptor; alpha4/beta2 (Homo sapiens, UniProt P17787+P43681); assay: Inhibition of alpha4beta2 nAChR; type: protein-complex assay
[7] = species: Rattus norvegicus; assay: Analgesic activity in rat inflammatory pain model assessed reduction formalin-induced inflammatory pain; type: functional, organism-based
[8] = species: Rattus norvegicus; assay: Analgesic activity in rat chronic constriction nerve injury model of neuropathic pain assessed as reversal of mechanical hyperalgesia; type: functional, organism-based
[9] = target: Neuronal acetylcholine receptor; alpha9/alpha10 (Homo sapiens, UniProt Q9GZZ6+Q9UGM1); assay: Antagonist activity at alpha9/alpha10 nAChR expressed in Xenopus oocyte assessed as inhibition of ACh-gated current by voltage clamp electrophysiology assay; type: functional
[10] = target: Neuronal acetylcholine receptor subunit alpha-7 (Homo sapiens, UniProt P36544); assay: Antagonist activity at alpha7 nAChR expressed in Xenopus oocyte assessed as inhibition of ACh-gated current by voltage clamp electrophysiology assay; type: functional
Sequence of Neuronal acetylcholine receptor subunit alpha-7 (P36544 whole entry): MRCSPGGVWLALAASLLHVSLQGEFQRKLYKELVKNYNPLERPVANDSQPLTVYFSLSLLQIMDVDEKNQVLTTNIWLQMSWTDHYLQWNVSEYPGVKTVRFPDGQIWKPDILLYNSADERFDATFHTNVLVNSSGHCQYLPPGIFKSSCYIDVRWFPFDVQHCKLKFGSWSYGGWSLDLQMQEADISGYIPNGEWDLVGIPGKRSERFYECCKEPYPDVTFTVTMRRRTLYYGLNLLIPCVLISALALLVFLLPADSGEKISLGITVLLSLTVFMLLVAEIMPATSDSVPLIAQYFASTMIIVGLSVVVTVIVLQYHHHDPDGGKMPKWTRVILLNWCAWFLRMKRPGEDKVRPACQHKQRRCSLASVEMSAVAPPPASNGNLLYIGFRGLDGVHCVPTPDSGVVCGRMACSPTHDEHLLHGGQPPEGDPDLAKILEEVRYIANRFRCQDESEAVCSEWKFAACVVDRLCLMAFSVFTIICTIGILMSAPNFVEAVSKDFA

Sequence of Neuronal acetylcholine receptor; alpha9/alpha10 (Q9UGM1 whole entry): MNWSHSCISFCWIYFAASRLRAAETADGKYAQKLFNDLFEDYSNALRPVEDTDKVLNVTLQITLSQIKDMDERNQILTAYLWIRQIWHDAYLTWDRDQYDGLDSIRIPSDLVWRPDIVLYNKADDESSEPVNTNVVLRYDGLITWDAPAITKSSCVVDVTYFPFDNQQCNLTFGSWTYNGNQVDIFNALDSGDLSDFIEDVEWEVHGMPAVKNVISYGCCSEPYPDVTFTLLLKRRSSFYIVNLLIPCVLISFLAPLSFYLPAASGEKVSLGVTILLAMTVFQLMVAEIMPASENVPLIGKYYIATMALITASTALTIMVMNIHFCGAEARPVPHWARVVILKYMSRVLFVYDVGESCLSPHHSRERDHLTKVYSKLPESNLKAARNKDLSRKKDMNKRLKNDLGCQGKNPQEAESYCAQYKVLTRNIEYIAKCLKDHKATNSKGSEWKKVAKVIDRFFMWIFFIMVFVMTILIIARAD
Sequence of Neuronal acetylcholine receptor; alpha9/alpha10 (Q9GZZ6 whole entry): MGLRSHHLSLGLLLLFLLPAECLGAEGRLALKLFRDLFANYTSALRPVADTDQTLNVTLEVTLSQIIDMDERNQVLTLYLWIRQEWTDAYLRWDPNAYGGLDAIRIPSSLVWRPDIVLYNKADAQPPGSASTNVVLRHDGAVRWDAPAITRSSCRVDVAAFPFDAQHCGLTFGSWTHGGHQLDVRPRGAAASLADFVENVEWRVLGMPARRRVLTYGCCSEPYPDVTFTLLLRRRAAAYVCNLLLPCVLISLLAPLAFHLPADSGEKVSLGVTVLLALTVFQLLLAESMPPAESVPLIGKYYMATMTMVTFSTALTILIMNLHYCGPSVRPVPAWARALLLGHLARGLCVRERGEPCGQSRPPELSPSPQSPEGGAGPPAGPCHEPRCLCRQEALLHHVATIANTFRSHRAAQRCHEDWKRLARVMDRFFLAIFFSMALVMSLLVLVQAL
Sequence of Neuronal acetylcholine receptor; alpha4/beta2 (P17787 whole entry): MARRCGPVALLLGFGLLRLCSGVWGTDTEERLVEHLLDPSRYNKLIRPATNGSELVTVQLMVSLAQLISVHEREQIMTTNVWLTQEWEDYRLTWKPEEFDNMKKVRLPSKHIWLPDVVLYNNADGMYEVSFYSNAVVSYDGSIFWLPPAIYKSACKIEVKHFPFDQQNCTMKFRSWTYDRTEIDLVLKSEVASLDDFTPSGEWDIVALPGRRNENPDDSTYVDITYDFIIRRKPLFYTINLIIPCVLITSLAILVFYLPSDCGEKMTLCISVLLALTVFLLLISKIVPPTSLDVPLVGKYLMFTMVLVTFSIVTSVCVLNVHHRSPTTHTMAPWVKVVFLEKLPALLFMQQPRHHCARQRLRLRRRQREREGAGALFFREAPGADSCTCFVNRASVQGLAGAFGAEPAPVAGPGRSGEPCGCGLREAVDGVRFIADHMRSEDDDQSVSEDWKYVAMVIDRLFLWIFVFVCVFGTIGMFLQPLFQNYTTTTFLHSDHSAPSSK
Sequence of Neuronal acetylcholine receptor; alpha4/beta2 (P43681 whole entry): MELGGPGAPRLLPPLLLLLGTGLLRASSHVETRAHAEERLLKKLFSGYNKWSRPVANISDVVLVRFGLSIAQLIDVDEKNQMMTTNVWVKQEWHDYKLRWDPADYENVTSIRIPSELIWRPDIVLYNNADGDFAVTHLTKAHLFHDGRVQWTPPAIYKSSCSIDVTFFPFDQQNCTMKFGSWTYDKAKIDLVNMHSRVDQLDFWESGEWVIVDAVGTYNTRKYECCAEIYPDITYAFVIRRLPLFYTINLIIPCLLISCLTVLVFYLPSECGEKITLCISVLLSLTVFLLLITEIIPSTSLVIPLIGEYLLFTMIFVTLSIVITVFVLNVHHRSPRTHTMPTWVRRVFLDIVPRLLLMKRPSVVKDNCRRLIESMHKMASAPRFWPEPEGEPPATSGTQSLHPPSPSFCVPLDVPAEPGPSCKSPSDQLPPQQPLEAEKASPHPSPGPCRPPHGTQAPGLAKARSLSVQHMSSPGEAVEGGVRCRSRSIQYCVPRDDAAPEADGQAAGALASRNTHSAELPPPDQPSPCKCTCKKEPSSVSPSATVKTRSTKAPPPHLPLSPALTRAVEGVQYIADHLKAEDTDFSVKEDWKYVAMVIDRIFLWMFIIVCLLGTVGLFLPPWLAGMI
Sequence of Neuronal acetylcholine receptor; alpha3/beta4 (P30926 whole entry): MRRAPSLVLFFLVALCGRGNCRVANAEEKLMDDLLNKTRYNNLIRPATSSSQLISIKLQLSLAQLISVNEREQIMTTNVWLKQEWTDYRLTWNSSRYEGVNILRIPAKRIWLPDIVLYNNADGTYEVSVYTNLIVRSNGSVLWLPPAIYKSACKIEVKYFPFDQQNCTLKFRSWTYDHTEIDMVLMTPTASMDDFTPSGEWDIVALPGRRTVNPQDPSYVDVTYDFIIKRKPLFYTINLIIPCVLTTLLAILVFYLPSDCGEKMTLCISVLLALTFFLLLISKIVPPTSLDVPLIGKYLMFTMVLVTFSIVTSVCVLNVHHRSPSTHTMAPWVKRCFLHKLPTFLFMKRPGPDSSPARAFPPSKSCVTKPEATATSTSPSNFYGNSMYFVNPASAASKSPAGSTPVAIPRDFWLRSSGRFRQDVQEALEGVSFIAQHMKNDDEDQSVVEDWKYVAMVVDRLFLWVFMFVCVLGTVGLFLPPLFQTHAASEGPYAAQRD
Sequence of Neuronal acetylcholine receptor; alpha3/beta4 (P32297 whole entry): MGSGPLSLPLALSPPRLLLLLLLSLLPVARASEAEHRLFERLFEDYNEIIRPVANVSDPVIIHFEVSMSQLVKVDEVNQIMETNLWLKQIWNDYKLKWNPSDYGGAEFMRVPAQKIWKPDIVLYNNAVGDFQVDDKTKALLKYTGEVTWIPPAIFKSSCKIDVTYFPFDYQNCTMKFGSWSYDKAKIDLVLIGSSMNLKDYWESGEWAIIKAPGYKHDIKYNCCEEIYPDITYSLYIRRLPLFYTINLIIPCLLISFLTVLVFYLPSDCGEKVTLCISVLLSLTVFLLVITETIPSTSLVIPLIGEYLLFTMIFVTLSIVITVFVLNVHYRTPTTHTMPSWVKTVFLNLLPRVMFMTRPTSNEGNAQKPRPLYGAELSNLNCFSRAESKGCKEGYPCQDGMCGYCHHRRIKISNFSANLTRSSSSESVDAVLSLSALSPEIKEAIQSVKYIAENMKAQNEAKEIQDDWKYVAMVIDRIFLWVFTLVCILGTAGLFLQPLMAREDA

In the case of `Cc1cc(C)c[n+](CCCCCc2cc(CCCCC[n+]3cc(C)cc(C)c3)c(CCCCC[n+]3cc(C)cc(C)c3)cc2CCCCC[n+]2cc(C)cc(C)c2)c1`, the Activity [1] is reported as 0.6%.
`Cc1cc(C)c[n+](CCCC#Cc2ccccc2C#CCCC[n+]2cc(C)cc(C)c2)c1` gave an Activity [1] of 67.6%.
Work on `Cc1cc(C)c[n+](CCCC#Cc2cc(C#CCCC[n+]3cc(C)cc(C)c3)cc(C#CCCC[n+]3cc(C)cc(C)c3)c2)c1` yielded an Activity [1] of 66%.
With `c1cc(CCCCC[n+]2ccc3ccccc3c2)cc(CCCCC[n+]2ccc3ccccc3c2)c1` the Activity [1] was 37.5%.
For `C(#Cc1cc(C#CCCC[n+]2cccc3ccccc32)cc(C#CCCC[n+]2cccc3ccccc32)c1)CCC[n+]1cccc2ccccc21`, the Activity [1] was 10.5%.
For `C(#Cc1cccc(C#CCCC[n+]2cccc3ccccc32)c1)CCC[n+]1cccc2ccccc21`, the Activity [1] was 41.6%.
In the case of `c1ccc2c[n+](CCCCCc3cc(CCCCC[n+]4ccc5ccccc5c4)cc(CCCCC[n+]4ccc5ccccc5c4)c3)ccc2c1`, the Activity [1] is reported as 6.9%.
With `C(#Cc1cc(C#CCCC[n+]2ccc3ccccc3c2)c(C#CCCC[n+]2ccc3ccccc3c2)cc1C#CCCC[n+]1ccc2ccccc2c1)CCC[n+]1ccc2ccccc2c1` the Activity [1] was 11.6%.
`C(#Cc1cc(C#CCCC[n+]2cccc(-c3ccccc3)c2)cc(C#CCCC[n+]2cccc(-c3ccccc3)c2)c1)CCC[n+]1cccc(-c2ccccc2)c1` showed an Activity [1] of 5.5%.
Compound `C(#Cc1cccc(C#CCCC[n+]2ccc3ccccc3c2)c1)CCC[n+]1ccc2ccccc2c1` has an Activity [1] of 39.7%.
With `CCCCc1ccc[n+](CCCCCc2cc(CCCCC[n+]3cccc(CCCC)c3)cc(CCCCC[n+]3cccc(CCCC)c3)c2)c1` the Activity [1] was 16.1%.
Compound `C(#Cc1cc(C#CCCC[n+]2cccc(-c3ccccc3)c2)c(C#CCCC[n+]2cccc(-c3ccccc3)c2)cc1C#CCCC[n+]1cccc(-c2ccccc2)c1)CCC[n+]1cccc(-c2ccccc2)c1` has an IC50 [2] of 0.8 µM, an IC50 [3] of 0.12 µM and an Activity [1] of 0.3%. The Activity [4] was “inactive”, the Activity [5] was “inactive” and the IC50 [6] was 3.8 µM. The Activity [7] was “Active” and the Activity [8] was “Dose-dependent effect”.
Compound `c1ccc(CCCCC[n+]2ccc3ccccc3c2)c(CCCCC[n+]2ccc3ccccc3c2)c1` has an Activity [1] of 31.1%.
With `Cc1cc[n+](CCCc2ccc(-c3ccc(CCC[n+]4ccc(C)c(C)c4)cc3)cc2)cc1C` the Activity [1] was 89.3%.
In the case of `Cc1cc[n+](CCCC#Cc2cc(C#CCCC[n+]3ccc(C)c(C)c3)c(C#CCCC[n+]3ccc(C)c(C)c3)cc2C#CCCC[n+]2ccc(C)c(C)c2)cc1C`, the Activity [1] is reported as 47.4%.
`c1cc(CCCCC[n+]2cccc3ccccc32)cc(CCCCC[n+]2cccc3ccccc32)c1` gave an Activity [1] of 42.6%.
With `Cc1cc[n+](CCCC#Cc2cc(C#CCCC[n+]3ccc(C)c(C)c3)cc(C#CCCC[n+]3ccc(C)c(C)c3)c2)cc1C` the Activity [1] was 61.1%.
For `c1ccc2c(c1)ccc[n+]2CCCCCc1cc(CCCCC[n+]2cccc3ccccc32)cc(CCCCC[n+]2cccc3ccccc32)c1`, the Activity [1] was 15.9%, the Activity [4] was “inactive” and the Activity [5] was “inactive”. For the same compound, the Activity [7] was “Active” and the Activity [8] was “Dose-dependent effect”.
With `Cc1cc[n+](CCCCc2ccc(CCCC[n+]3ccc(C)c(C)c3)cc2)cc1C` the Activity [1] was 36.7%.
`Cc1cc[n+](CCCCCc2ccccc2CCCCC[n+]2ccc(C)c(C)c2)cc1C` gave an Activity [1] of 72%.
`Cc1cc(C)c[n+](CCCCCc2ccccc2CCCCC[n+]2cc(C)cc(C)c2)c1` gave an Activity [1] of 124%.
In the case of `C(#Cc1ccccc1C#CCCC[n+]1ccc2ccccc2c1)CCC[n+]1ccc2ccccc2c1`, the Activity [1] is reported as 28%.
`Cc1cc(C)c[n+](CCCCCc2cc(CCCCC[n+]3cc(C)cc(C)c3)cc(CCCCC[n+]3cc(C)cc(C)c3)c2)c1` gave an Activity [1] of 79.8%.
`Cc1cc(C)c[n+](CCCc2ccc(-c3ccc(CCC[n+]4cc(C)cc(C)c4)cc3)cc2)c1` showed an Activity [1] of 114%.
Work on `c1ccc2c[n+](CCCCCc3cc(CCCCC[n+]4ccc5ccccc5c4)c(CCCCC[n+]4ccc5ccccc5c4)cc3CCCCC[n+]3ccc4ccccc4c3)ccc2c1` yielded an Activity [1] of 17.9%.
For `Cc1cc[n+](CCCCCc2cc(CCCCC[n+]3ccc(C)c(C)c3)c(CCCCC[n+]3ccc(C)c(C)c3)cc2CCCCC[n+]2ccc(C)c(C)c2)cc1C`, the Activity [1] was 11%.
For `Cc1cc(C)c[n+](CCCCc2ccc(CCCC[n+]3cc(C)cc(C)c3)cc2)c1`, the Activity [1] was 97.1%.
In the case of `Cc1cc[n+](CCCC#Cc2cccc(C#CCCC[n+]3ccc(C)c(C)c3)c2)cc1C`, the Activity [1] is reported as 76.9%.
Compound `Cc1cc[n+](CCC#Cc2ccc(C#CCC[n+]3ccc(C)c(C)c3)cc2)cc1C` has an Activity [1] of 10.6%.
With `Cc1cc[n+](CCCCCc2cc(CCCCC[n+]3ccc(C)c(C)c3)cc(CCCCC[n+]3ccc(C)c(C)c3)c2)cc1C` the Activity [1] was 62.7%.
For `Cc1cc(C)c[n+](CCCC#Cc2cc(C#CCCC[n+]3cc(C)cc(C)c3)c(C#CCCC[n+]3cc(C)cc(C)c3)cc2C#CCCC[n+]2cc(C)cc(C)c2)c1`, the Activity [1] was 0.3%.
In the case of `Cc1cc[n+](CC#Cc2ccc(-c3ccc(C#CC[n+]4ccc(C)c(C)c4)cc3)cc2)cc1C`, the IC50 [9] is reported as 0.016 µM, the Activity [1] is reported as 8.1% and the Activity [4] is reported as “inactive”. The IC50 [10] was 1.19 µM, the Activity [5] was “inactive” and the Activity [7] was “Active”. For the same compound, the Activity [8] was “Dose-dependent effect”.
`Cc1cc(C)c[n+](CCC#Cc2ccc(C#CCC[n+]3cc(C)cc(C)c3)cc2)c1` gave an Activity [1] of 76.2%.
In the case of `c1ccc(-c2ccc[n+](CCCCCc3cc(CCCCC[n+]4cccc(-c5ccccc5)c4)c(CCCCC[n+]4cccc(-c5ccccc5)c4)cc3CCCCC[n+]3cccc(-c4ccccc4)c3)c2)cc1`, the IC50 [9] is reported as 0.0054 µM, the Activity [1] is reported as 6.5% and the IC50 [10] is reported as 0.099 µM.
For `CCCCc1ccc[n+](CCCC#Cc2cc(C#CCCC[n+]3cccc(CCCC)c3)cc(C#CCCC[n+]3cccc(CCCC)c3)c2)c1`, the Activity [1] was 36.1%.
Compound `C(#Cc1cccc(C#CCCC[n+]2cccc(-c3ccccc3)c2)c1)CCC[n+]1cccc(-c2ccccc2)c1` has an Activity [1] of 23.2%.
`c1ccc(-c2ccc[n+](CCCCCc3cc(CCCCC[n+]4cccc(-c5ccccc5)c4)cc(CCCCC[n+]4cccc(-c5ccccc5)c4)c3)c2)cc1` showed an Activity [1] of 3.84%.
Work on `Cc1cc[n+](CCCCCc2cccc(CCCCC[n+]3ccc(C)c(C)c3)c2)cc1C` yielded an Activity [1] of 62.7%.
In the case of `Cc1cc[n+](CCCC#Cc2ccccc2C#CCCC[n+]2ccc(C)c(C)c2)cc1C`, the Activity [1] is reported as 31.3%.
With `c1ccc(CCCCC[n+]2cccc3ccccc32)c(CCCCC[n+]2cccc3ccccc32)c1` the Activity [1] was 10.9%.
